As usually defined, the IC50 is the point on the concentration scale where inhibition reaches its midpoint.

Each structure is given as a SMILES string. A value given as a limit tells only on which side of the number the result lay.

The target in one assay is T1, recombinant human protein kinase CK2 alpha subunit (Homo sapiens, UniProt P68400). Description: Luminescent (Kinase-Glo) CK2 screening assay. Particulars: inhibitor 1 μM; ATP 10 µM, peptide substrate RRRDDDSDDD 200 µM; 30 °C, 40 min; triplicate; LI = luciferase inhibition (luminescence lower than control). Format: biochemical. On the procedure: (§1) The study was conducted using recombinant human protein kinase CK2 alpha subunit, obtained using plasmid pZW6 (Addgene, USA, catalogue number 27086), ATP (Sigma-Aldrich, USA, catalogue number A2383) and peptide substrate RRRDDDSDDD (GenScript, USA, catalogue number RP10318). Tris(hydroxymethyl)aminomethane hydrochloride (Tris-HCl) (Sigma-Aldrich, USA, catalogue number 10812846001), KCl (Sigma-Aldrich, USA, catalogue number P3911) and MgCl2 (Sigma-Aldrich, USA, catalogue number 208337) were used to prepare the reaction buffer. Dimethyl sulfoxide (DMSO) (Sigma-Aldrich, USA, catalogue number 472301) was used as a solvent for the compounds. Luminescent assays were performed using Kinase-Glo® kit (Promega, USA, catalogue number V6711). Aurone derivatives were synthesised following the procedure[20] described earlier starting from the benzo[e]benzofuran-1-one intermediate obtained in a known manner. The structures of tested aurone derivatives are given in the Results section.
T1 sequence (P68400 whole entry): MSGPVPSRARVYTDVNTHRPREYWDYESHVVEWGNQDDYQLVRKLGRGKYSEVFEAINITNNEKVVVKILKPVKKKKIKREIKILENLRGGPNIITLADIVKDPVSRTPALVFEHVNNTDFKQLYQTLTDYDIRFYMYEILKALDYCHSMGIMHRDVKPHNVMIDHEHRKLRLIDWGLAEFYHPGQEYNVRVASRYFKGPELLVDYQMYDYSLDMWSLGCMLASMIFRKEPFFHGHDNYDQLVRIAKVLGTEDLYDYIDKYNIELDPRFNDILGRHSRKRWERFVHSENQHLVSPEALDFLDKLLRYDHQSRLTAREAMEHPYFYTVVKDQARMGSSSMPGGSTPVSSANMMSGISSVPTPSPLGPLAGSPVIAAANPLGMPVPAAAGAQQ
(§2) The reaction mixture volume was 50 μl. The reaction buffer contained 2 mM Tris HCl, 5 mM KCl and 1 mM MgCl2, pH 7.5. The concentration of CK2 alpha subunit was 2 mg/l per sample in control and experimental samples. The reaction mixtures contained 0.5 μl of inhibitor solution in DMSO per sample (final inhibitor concentrations were different in luminescent and CE assays) or 0.5 μl of pure DMSO in control and calibration samples. The samples were incubated at 30 °C for 40 min.
The luminescent assay measured sample luminescence following the addition of the Kinase-Glo luciferase mixture, with the signal reflecting the remaining ATP content. The final ATP concentration indicates the extent of peptide phosphorylation: higher ATP levels correspond to lower peptide phosphorylation. This method was considered as a rapid and straightforward approach for screening a large number of compounds without quantitatively determining their activity.
ATP and peptide substrate were initially present at concentrations of 10 µM and 200 µM, respectively. Calibration samples, which lacked the enzyme, represented the initial ATP concentration. The inhibitor concentration in experimental samples was 1 µM. Measurements were performed using a LuMate 4400 microplate reader (Awareness Technology, USA). Luminescence was recorded after adding 50 µL of the Kinase-Glo luminescent mixture to each sample. In order to simplify the screening process, no signal–concentration calibration curve was constructed for precise ATP quantification. Instead, luminescence values of experimental and control samples were compared directly with those of enzyme-free calibration samples, which reflected the initial ATP level. The percentage of inhibition was determined by the formula: I=100∗(Me−Mc)/(Mo−Mc)
I is the inhibition in percent, Me, Mc and Mo are the luminescence of the experimental, calibration and control samples, respectively. The experiments were performed in triplicate, after which the obtained values were averaged.
This effect may result from the inhibition of luciferase activity. The decrease in luminescence reflects not increased ATP consumption by CK2 during peptide phosphorylation, but rather reduced oxyluciferin formation – the luminescent product – caused by luciferase inhibition by the test compound. The manufacturer of the Kinase-Glo kit, as well as practical studies of protein kinases claim the possibility of this effect[23]^,[24]. […] Furthermore, some compounds with potential luciferase inhibitory activity could have produced false-negative results.
This deviation was most pronounced in samples with low absolute luminescence values (and consequently, low inhibition).
(Kinase-Glo measures the ATP left after a reaction by luminescence.)
As for `O=C1C(=Cc2ccc(O)c([N+](=O)[O-])c2)Oc2c1ccc1ccccc21` [BFO22], the “I (%) (inhibition)” value was found to be 80 ± 13%.
Same read-out and setting: the value for `COc1cc(C=C2Oc3ccc4ccccc4c3C2=O)ccc1O` [BFO23] was 85 ± 14%; that for `O=C1C(=Cc2ccc(O)c(F)c2)Oc2ccc3ccccc3c21` [BFO24] was 95 ± 23%; that for `O=C1C(=Cc2ccc(O)c(Cl)c2)Oc2ccc3ccccc3c21` [BFO25] was 88 ± 11%.
`COc1cc(C=C2Oc3ccc4ccccc4c3C2=O)cc([N+](=O)[O-])c1O` [BFO26]: the “I (%) (inhibition)” value is recorded as 90 ± 7%.
Same read-out and setting: the value for `O=C1C(=Cc2ccc(O)c(Br)c2)Oc2ccc3ccccc3c21` [BFO27] was 86 ± 1%; that for `O=C1/C(=C/c2ccc(O)c(F)c2)Oc2ccccc21` [Compound 1] was 36 ± 12%.
The same measure, in the same setting: the value for `COc1cccc(C=C2Oc3ccccc3C2=O)c1O` [Compound 2] was under 25%.
In the case of `O=C1/C(=C/c2ccccc2O)Oc2cc(O)ccc21` [Compound 3], the “I (%) (inhibition)” value is under 25%.
Still for that read-out and setting: the value for `O=C(O)c1ccc(C=C2Oc3cc(O)ccc3C2=O)cc1` [Compound 4] was 41 ± 9%.
Still for that read-out and setting: the value for `COc1cc(C=C2Oc3cc(O)ccc3C2=O)cc(Cl)c1O` [Compound 5] was 48 ± 21%; that for `CCOc1cc(/C=C2\Oc3cc(O)ccc3C2=O)ccc1O` [Compound 6] was under 25%.
Same read-out and setting: the value for `COc1ccc2c(c1)OC(=Cc1ccccc1O)C2=O` [Compound 7] was under 25%.
On to `COc1ccc2c(c1)OC(=Cc1cccc(O)c1)C2=O` [Compound 8], for which the “I (%) (inhibition)” value is under 25%.
Turning to `COc1ccc2c(c1)OC(=Cc1ccc(O)cc1)C2=O` [Compound 9], the “I (%) (inhibition)” value is recorded as under 25%.
On the same count and under the same terms, in the case of `COc1ccc2c(c1)OC(=Cc1ccc(O)c(OC)c1)C2=O` [Compound 10] it was 27 ± 19%.
The same measure, in the same setting: the value for `O=C(O)COc1ccc2c(c1)OC(=Cc1cccc(F)c1)C2=O` [Compound 11] was under 25%; that for `O=C(O)COc1ccc2c(c1)OC(=Cc1ccc(C(=O)O)cc1)C2=O` [Compound 12] was under 25%.
Same read-out and setting: in the case of `O=C1C(=Cc2ccccc2O)Oc2ccc(O)cc21` [Compound 13] it was under 25%; in that of `Cc1cc(C=C2Oc3ccc(Br)cc3C2=O)ccc1O` [Compound 14], under 25%; in that of `O=C1C(=Cc2ccc(O)c(F)c2)Oc2ccc(Br)cc21` [Compound 15], under 25%.
`O=C1C(=Cc2ccc(O)c(F)c2)Oc2ccc(Cl)cc21` [Compound 16]: the “I (%) (inhibition)” value is listed as under 25%.
Still for that read-out and setting: in the case of `Cc1cc(C=C2Oc3ccc(Cl)cc3C2=O)ccc1O` [Compound 17] it was under 25%.
`Cc1cc(C=C2Oc3c(Cl)ccc(Cl)c3C2=O)ccc1O` [Compound 18]: the “I (%) (inhibition)” value is listed as under 25%.
The same measure, in the same setting: in the case of `O=C1C(=Cc2ccc(O)c(F)c2)Oc2c(Cl)ccc(Cl)c21` [Compound 19] it was 61 ± 15%; in that of `Cc1cc(/C=C2\Oc3cc(C)c(Cl)c(C)c3C2=O)ccc1O` [Compound 20], under 25%.
Same read-out and setting: the value for `Cc1cc2c(c(C)c1Cl)C(=O)C(=Cc1ccc(O)c(F)c1)O2` [Compound 21] was under 25%.
As for `O=C(O)c1ccc(C=C2Oc3c(ccc4ccccc34)C2=O)cc1` [Compound 22], the “I (%) (inhibition)” value is listed as under 25%.
Same read-out and setting: the value for `O=C1C(=Cc2ccc(O)cc2)Oc2c1ccc1ccccc21` [Compound 23] was under 25%; that for `COc1cc(C=C2Oc3c(ccc4ccccc34)C2=O)ccc1O` [Compound 28] was under 25%; that for `O=C(O)c1cc(C=C2Oc3c(ccc4ccccc34)C2=O)ccc1O` [Compound 31] was under 25%.
Same read-out and setting: the value for `O=C1C(=Cc2ccc(O)c(Cl)c2)Oc2c1ccc1ccccc21` [Compound 32] was 68 ± 15%; that for `O=C1C(=Cc2cc(Cl)c(O)c(Cl)c2)Oc2c1ccc1ccccc21` [Compound 33] was under 25%.
With `O=C1C(=Cc2ccc(O)c(Br)c2)Oc2c1ccc1ccccc21` [Compound 34], the “I (%) (inhibition)” value is recorded as under 25%.
The same measure, in the same setting: the value for `O=C1C(=Cc2cc(Br)c(O)c(Br)c2)Oc2c1ccc1ccccc21` [Compound 35] was 39 ± 14%; that for `O=C1C(=Cc2ccc(O)c(F)c2)Oc2c1ccc1ccccc21` [Compound 36] was under 25%; that for `O=C1C(=Cc2ccc(O)cc2)Oc2ccc3ccccc3c21` [Compound 38] was under 25%.
Still for that read-out and setting: in the case of `O=C(O)c1ccc(C=C2Oc3ccc4ccccc4c3C2=O)cc1` [Compound 39] it was 69 ± 24%; in that of `O=C1C(=Cc2cccc(O)c2)Oc2ccc3ccccc3c21` [Compound 40], under 25%; in that of `O=C1C(=Cc2ccc(O)c(O)c2)Oc2ccc3ccccc3c21` [Compound 41], under 25%.
Still for that read-out and setting: the value for `Cc1cc(C=C2Oc3ccc4ccccc4c3C2=O)ccc1O` [Compound 45] was under 25%; that for `O=C(O)c1cc(C=C2Oc3ccc4ccccc4c3C2=O)ccc1O` [Compound 48] was 32 ± 24%; that for `O=C1C(=Cc2cc(Cl)c(O)c(Cl)c2)Oc2ccc3ccccc3c21` [Compound 51] was 78 ± 22%.
Consider `COc1cc(C=C2Oc3ccc4ccccc4c3C2=O)cc(Cl)c1O` [Compound 52], for which the “I (%) (inhibition)” value is listed as 46 ± 15%.
On the same count and under the same terms, the value for `O=C1/C(=C/c2cc(Br)c(O)c(Br)c2)Oc2ccc3ccccc3c21` [Compound 54] was 69 ± 1%.

In the next assay the target is T1, recombinant human protein kinase CK2 alpha subunit. The assay is described as follows: Capillary electrophoresis (CE) CK2 assay. In kind it is biochemical. Particulars: ATP 100 µM, peptide substrate 100 µM; 30 °C, 40 min; triplicate; Hill fit. As to the method:
as §1, §2
The initial concentrations of ATP and peptide substrate were 100 µM. The reaction was stopped by adding 100 μl of 20 mM EDTA disodium salt. All IC50 studies were performed in triplicate. Mean conversion values for each concentration were used for construction of the conversion-versus-concentration curves and IC50 determination.
The conversion was determined by the formula: C=100∗P/P+N
C is the conversion in percent, P is the peak area of the phosphorylated product, and N is the peak area of the substrate.
Inhibition was calculated using the formula: I=100∗ Co−Ce/Co
I – inhibition in percent, Со – conversion in control sample, Се – conversion in experimental sample.
For the tested compounds, inhibition curves were plotted as a function of concentration and fitted using the Hill equation: y=x^n/k^n+x^n y – inhibition in percent, x – inhibitor concentration, k – IC50 value, n – Hill coefficient.
Inhibition curves were built using at least four data points, with additional concentrations tested for some compounds to refine the curve’s shape. The IC50 value was determined from the fitted curve as the concentration producing 50% inhibition.
All electrophoretic separations were performed with a capillary electrophoresis system Сapel-105M (Lumex). Fused silica (Lumex) of a total length of 75 cm (effective length 65 cm) with inner diameter 50 μm was used. Before use, fused silica was washed for 5 min with 0.1 M HCl solution, then 5 min with distilled water, then 5 min with 0.1 M NaOH solution, again for 5 min with distilled water and for 5 min with background electrolyte (BGE).
A 150 mM orthophosphoric acid (pH 1.2) was used as BGE. Before electrophoretic separation, 350 μl of deionised water was added to the samples. Samples were introduced hydrodynamically at 900 mbar*s. The electrophoresis voltage was 25 kV. Electrophoretic separation was carried out in positive polarity. Detection conducted at a wavelength of 192 nm. Instrument control, data collection and integration were performed with Elforun (Lumex) software.
`O=C1C(=Cc2ccc(O)c([N+](=O)[O-])c2)Oc2c1ccc1ccccc21` [BFO22]: the IC50 was 680 nM.
The same measure, in the same setting: the value for `COc1cc(C=C2Oc3ccc4ccccc4c3C2=O)ccc1O` [BFO23] was 130 nM; that for `O=C1C(=Cc2ccc(O)c(F)c2)Oc2ccc3ccccc3c21` [BFO24] was 220 nM; that for `O=C1C(=Cc2ccc(O)c(Cl)c2)Oc2ccc3ccccc3c21` [BFO25] was 3 nM.
Still for that read-out and setting: the value for `COc1cc(C=C2Oc3ccc4ccccc4c3C2=O)cc([N+](=O)[O-])c1O` [BFO26] was 130 nM; that for `O=C1C(=Cc2ccc(O)c(Br)c2)Oc2ccc3ccccc3c21` [BFO27] was 13 nM.

Source of the values: paper PMC12512767, “Discovery of new aurone derivatives as submicromolar CK2 inhibitors” (Journal of Enzyme Inhibition and Medicinal Chemistry, 2025).
